Drawing on ChEMBL document CHEMBL1122560, “Adrenal medulla imaging agents: a structure-distribution relationship study of radiolabeled aralkylguanidines” (J Med Chem, 1984), this text covers Ratio for 15 compounds.

Structures are written as SMILES.

A short description of this data set: Ratio of the concentration levels determined for the adrenal medulla to the liver after 72 hr; [Adrenal Medulla] / [liver]. The data set is classed as ADME, tissue-based.

As for `N=C(N)N` [GUANIDINE], the Ratio stood at 1.4.

On to `N=C(N)NCCc1cccc(I)c1`, for which the Ratio stood at 190.

Regarding `N=C(N)NCc1ccccc1`, the Ratio is recorded as 2700.

As for `CC(N=C(N)N)c1ccc(I)cc1` (racemic), the Ratio is 190.

On to `CC(N=C(N)N)c1cccc(I)c1` (racemic), for which the Ratio came out at 430.

On to `CC(N=C(N)N)c1cccc(I)c1` (single isomer, unassigned; (-)), for which the Ratio worked out at 300.

For `CC(N=C(N)N)c1cccc(I)c1` (stereo in doubt; 8b(+)), the Ratio is reported as 390.

For the compound `N=C(N)NCc1ccc(I)cc1`, the Ratio is listed as 545.

Turning to `N=C(N)NCc1ccc(I)c(I)c1`, the Ratio is listed as 115.

With `N=C(N)NCc1cc(I)cc(I)c1`, the Ratio is on record as 5.2.

With `N=C(N)NCCN1CCCCCCC1` [GUANETHIDINE], the Ratio was found to be 70.

Turning to `N=C(N)NCCc1ccc(I)cc1`, the Ratio is reported as 200.

On to `N=C(N)Nc1cccc(I)c1`, for which the Ratio worked out at 45.

Regarding `N=C(N)NCc1cccc(I)c1` [IOBENGUANE], the Ratio is given as 720.

Turning to `N=C(N)NCc1ccccc1I`, the Ratio is 130.
